Tested on: fine lines, wrinkles in the outer canthus of the eyes (crow's feet area)
Assay: Roughness reduction [SEr] via Visioscan, Example 1
Format: in vivo, human
Set-up: Roughness [SEr] via Visioscan / Roughness [SEr] via Visioscan, Mean: scale not given here
Description: Three groups of women were recruited to evaluate and compare the efficacy of three anti-aging test products (targeting the periorbital eye area) intended to reduce the appearance of fine lines, wrinkles in the outer canthus of the eyes (crow's feet area) over a 12 week period. Wrinkle assessment was conducted instrumentally using a Visioscan image analysis system. Effectiveness of the test product was evaluated using panelist self-assessment via questionnaire responses comprised of 3-4 questions (Q1, Q2, Q3 & Q4). Each stage in the progression of treatments was photographically documented using a High Resolution Scientifically Matched Photography technique. Image analysis was utilized to quantify changes in fine lines and crow's feet condition observed in the Scientifically Matched Photographs.
Subject Selection: • Number: Six subjects (two per group) to complete the study. • Sex: Females • Race: Caucasian/Asian/Hispanic • Age Range: 40 through 60 years old
Test samples: • Topical 0.15% of Compound #222 in Oil (a 50/50 mixture of • Propylene Glycol Dicaprylate/Dicaprate and Caprylic/Capric Triglyceride) (Cohort 1) • Topical 0.15% of Compound #222 in PEG400 (Cohort 2) • Topical 0.05% of Compound #222 in PEG400 (Cohort 3)
Prior to baseline measurements being taken, areas of involvement were marked on the facial surface using a standard template, to ensure that instruments were repositioned in the same location at each visit. The biophysical measurements (Surface Evaluation of Living Skin via Visioscan) were conducted by a trained technician. Pre-treatment High Resolution Scientifically Matched Photographs were taken.
[…] After acclimating to ambient conditions, High Resolution Scientifically Matched Photographs were be taken and biophysical measurements (Surface Evaluation of Living Skin via Visioscan) were repeated using the standard template to identify test sites on the face. In addition (during the acclimation period) all participants were be asked to fill out a self-assessment questionnaire.
Surface Evaluation of Living Skin Visioscan: The Visioscan (Courage and Khazaka) took a direct image of the living skin using a measuring head containing a CCD-camera and two metal halogen lamps positioned opposite each other in order to ensure even illumination of the measuring field on the skin (Skin Pharmacol Appl Skin Physiol (1999), 12(1-2), 1-11 and Cosmetic & Toiletries magazine (2009), 124(6), 51-54). The grey level distribution of the pixels in the image correspond to different phenomena (white pixels represent desquamation on the skin, dark pixels represent lines and wrinkles). The software with the Visioscan automatically calculates skin smoothness, skin roughness, scaliness and wrinkle parameters. […]
The source data was Visioscan and PhotoGrammetrix Image Analysis readings along with subjective assessments, which were totaled and reported as average scores. Photographs were placed side by side as to compare the photographs of before and after application of the test product in the eye area. […] The data obtained via Visioscan and from PhotoGrammetrix Image Analysis was quoted as % differences from baseline at each of the previously described time points. A paired t-test analysis was conducted in order to compare the results of post test product application measurements to baseline measurements where applicable. Statistical significance was established if p≤(α=0.05) was calculated.

## O=C(CCC(=O)c1ccc2c(c1)OCO2)c1ccccc1 [#222]
Day 7, Topical 0.05% in PEG (Cohort 3)
  Roughness [SEr] via Visioscan, Mean: 1.64
Day 7, Topical 0.15% in Oil (Cohort 1)
  Roughness [SEr] via Visioscan, Mean: 1.97
Day 7, Topical 0.15% in PEG (Cohort 2)
  Roughness [SEr] via Visioscan, Mean: 1.67
Day 7 vs Baseline, Topical 0.05% in PEG (Cohort 3)
  Roughness [SEr] via Visioscan, % Difference of Mean: −20.24%
Day 7 vs Baseline, Topical 0.15% in Oil (Cohort 1)
  Roughness [SEr] via Visioscan, % Difference of Mean: −10.36%
Day 7 vs Baseline, Topical 0.15% in PEG (Cohort 2)
  Roughness [SEr] via Visioscan, % Difference of Mean: −10.19%
Day 14, Topical 0.05% in PEG (Cohort 3)
  Roughness [SEr] via Visioscan, Mean: 1.51
Day 14, Topical 0.15% in Oil (Cohort 1)
  Roughness [SEr] via Visioscan, Mean: 1.77
Day 14, Topical 0.15% in PEG (Cohort 2)
  Roughness [SEr] via Visioscan, Mean: 1.62
Day 14 vs Baseline, Topical 0.05% in PEG (Cohort 3)
  Roughness [SEr] via Visioscan, % Difference of Mean: −26.59%
Day 14 vs Baseline, Topical 0.15% in Oil (Cohort 1)
  Roughness [SEr] via Visioscan, % Difference of Mean: −19.36%
Day 14 vs Baseline, Topical 0.15% in PEG (Cohort 2)
  Roughness [SEr] via Visioscan, % Difference of Mean: −12.53%
Subject #1, Day 7, Topical 0.15% in Oil (Cohort 1)
  Roughness [SEr] via Visioscan: 2.46
Subject #1, Day 7 vs Baseline, Topical 0.15% in Oil (Cohort 1)
  Roughness [SEr] via Visioscan, Individual % Difference: −1.60%
Subject #1, Day 14, Topical 0.15% in Oil (Cohort 1)
  Roughness [SEr] via Visioscan: 2.25
Subject #1, Day 14 vs Baseline, Topical 0.15% in Oil (Cohort 1)
  Roughness [SEr] via Visioscan, Individual % Difference: −9.82%
Subject #2, Day 7, Topical 0.15% in Oil (Cohort 1)
  Roughness [SEr] via Visioscan: 1.48
Subject #2, Day 7 vs Baseline, Topical 0.15% in Oil (Cohort 1)
  Roughness [SEr] via Visioscan, Individual % Difference: −21.90%
Subject #2, Day 14, Topical 0.15% in Oil (Cohort 1)
  Roughness [SEr] via Visioscan: 1.29
Subject #2, Day 14 vs Baseline, Topical 0.15% in Oil (Cohort 1)
  Roughness [SEr] via Visioscan, Individual % Difference: −31.93%
Subject #3, Day 7, Topical 0.15% in PEG (Cohort 2)
  Roughness [SEr] via Visioscan: 1.95
Subject #3, Day 7 vs Baseline, Topical 0.15% in PEG (Cohort 2)
  Roughness [SEr] via Visioscan, Individual % Difference: −11.79%
Subject #3, Day 14, Topical 0.15% in PEG (Cohort 2)
  Roughness [SEr] via Visioscan: 1.90
Subject #3, Day 14 vs Baseline, Topical 0.15% in PEG (Cohort 2)
  Roughness [SEr] via Visioscan, Individual % Difference: −13.83%
Subject #4, Day 7, Topical 0.15% in PEG (Cohort 2)
  Roughness [SEr] via Visioscan: 1.39
Subject #4, Day 7 vs Baseline, Topical 0.15% in PEG (Cohort 2)
  Roughness [SEr] via Visioscan, Individual % Difference: −7.84%
Subject #4, Day 14, Topical 0.15% in PEG (Cohort 2)
  Roughness [SEr] via Visioscan: 1.35
Subject #4, Day 14 vs Baseline, Topical 0.15% in PEG (Cohort 2)
  Roughness [SEr] via Visioscan, Individual % Difference: −10.63%
Subject #5, Day 7, Topical 0.05% in PEG (Cohort 3)
  Roughness [SEr] via Visioscan: 1.83
Subject #5, Day 7 vs Baseline, Topical 0.05% in PEG (Cohort 3)
  Roughness [SEr] via Visioscan, Individual % Difference: −29.07%
Subject #5, Day 14, Topical 0.05% in PEG (Cohort 3)
  Roughness [SEr] via Visioscan: 1.77
Subject #5, Day 14 vs Baseline, Topical 0.05% in PEG (Cohort 3)
  Roughness [SEr] via Visioscan, Individual % Difference: −31.40%
Subject #6, Day 7, Topical 0.05% in PEG (Cohort 3)
  Roughness [SEr] via Visioscan: 1.44
Subject #6, Day 7 vs Baseline, Topical 0.05% in PEG (Cohort 3)
  Roughness [SEr] via Visioscan, Individual % Difference: −5.26%
Subject #6, Day 14, Topical 0.05% in PEG (Cohort 3)
  Roughness [SEr] via Visioscan: 1.24
Subject #6, Day 14 vs Baseline, Topical 0.05% in PEG (Cohort 3)
  Roughness [SEr] via Visioscan, Individual % Difference: −18.42%
